Converted amounts (≈) assume the structure as drawn.
Legend:
human sEH = biological target: T1, human sEH (Homo sapiens, UniProt P34913); test: Determination of inhibitory potency; assay type: biochemical; details: read-out: Human sEH IC50; recombinant affinity purified human sEH, means of three separate experiments
T1 sequence (P34913 1-555): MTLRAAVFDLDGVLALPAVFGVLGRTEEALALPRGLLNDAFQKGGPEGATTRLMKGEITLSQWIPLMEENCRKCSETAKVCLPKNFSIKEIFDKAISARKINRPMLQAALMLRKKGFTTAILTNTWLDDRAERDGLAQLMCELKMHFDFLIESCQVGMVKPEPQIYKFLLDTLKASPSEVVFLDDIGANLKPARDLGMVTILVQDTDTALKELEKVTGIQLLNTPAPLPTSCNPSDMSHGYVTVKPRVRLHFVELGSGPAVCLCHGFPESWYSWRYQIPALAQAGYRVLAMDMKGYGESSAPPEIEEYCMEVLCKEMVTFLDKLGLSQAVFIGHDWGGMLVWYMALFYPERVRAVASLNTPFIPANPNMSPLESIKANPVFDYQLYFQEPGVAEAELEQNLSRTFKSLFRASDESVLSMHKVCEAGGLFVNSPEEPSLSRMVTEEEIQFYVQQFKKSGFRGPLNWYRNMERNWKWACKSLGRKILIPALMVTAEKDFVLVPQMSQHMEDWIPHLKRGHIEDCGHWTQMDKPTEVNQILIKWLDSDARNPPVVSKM

[1] = Solubility by turbidimetric assay in sodium phosphate buffer; assay type: physicochemical; details: sodium phosphate buffer pH 7.4, 0.1 M, 1% DMSO

CC1(C)C2CCC1(C)C(NC(=O)Nc1ccc(F)cc1)C2 [Compound D-3b, D-1-(4-fluorophenyl)-3-(1,7,7-trimethylbicyclo[2.2.1]heptan-2-yl)urea]
IC50 (human sEH): 0.0082 µM | Solubility [1]: 65 ± 15 µM (≈ 18.9 µg/mL)

CC1(C)C2CCC1(C)C(NC(=S)Nc1cccc(F)c1)C2 [Compound D-3e, D-1-(3-fluorophenyl)-3-(1,7,7-trimethylbicyclo[2.2.1]heptan-2-yl)thiourea]
IC50 (human sEH): 0.176 µM | Solubility [1]: 10 ± 5 µM (≈ 3.06 µg/mL)

CC12CCC(C1)C(C)(C)C2NC(=O)Nc1ccc(F)cc1 [Compound L-6b, L-1-(4-fluorophenyl)-3-(1,3,3-trimethylbicyclo[2.2.1]heptan-2-yl)urea]
IC50 (human sEH): 0.412 µM | Solubility [1]: 65 ± 15 µM (≈ 18.9 µg/mL)

CC12CCC(C1)C(C)(C)C2NC(=S)Nc1cccc(F)c1 [Compound D-6e, D-1-(3-fluorophenyl)-3-(1,3,3-trimethylbicyclo[2.2.1]heptan-2-yl)thiourea]
IC50 (human sEH): 6.48 µM | Solubility [1]: 10 ± 5 µM (≈ 3.06 µg/mL)

CC12CCC(C1)C(C)(C)C2NC(=O)Nc1cccc(F)c1 [Compound D-6a, D-1-(3-fluorophenyl)-3-(1,3,3-trimethylbicyclo[2.2.1]heptan-2-yl)urea]
IC50 (human sEH): 0.23 µM | Solubility [1]: 45 ± 10 µM (≈ 13.1 µg/mL)

CC12CCC(C1)C(C)(C)C2NC(=O)Nc1ccc(F)cc1 [Compound D-6b, D-1-(4-fluorophenyl)-3-(1,3,3-trimethylbicyclo[2.2.1]heptan-2-yl)urea]
IC50 (human sEH): 0.367 µM | Solubility [1]: 65 ± 15 µM (≈ 18.9 µg/mL)

CC1(C)C2CCC1(C)C(NC(=O)Nc1ccc(F)cc1)C2 (racemic) [L/D-3b, rac-1-(4-fluorophenyl)-3-(1,7,7-trimethylbicyclo[2.2.1]heptan-2-yl)urea]
IC50 (human sEH): 0.0051 µM | Solubility [1]: 65 ± 15 µM (≈ 18.9 µg/mL)

CC1(C)C2CCC1(C)C(NC(=O)Nc1cccc(Cl)c1)C2 [Compound D-3d, D-1-(3-chlorophenyl)-3-(1,7,7-trimethylbicyclo[2.2.1]heptan-2-yl)urea]
IC50 (human sEH): 0.0017 µM | Solubility [1]: 35 ± 15 µM (≈ 10.7 µg/mL)

CC1(C)C2CCC1(C)C(NC(=S)Nc1ccc(F)cc1)C2 [Compound L-3f, L-1-(4-fluorophenyl)-3-(1,7,7-trimethylbicyclo[2.2.1]heptan-2-yl)thiourea]
IC50 (human sEH): 0.031 µM | Solubility [1]: 15 ± 5 µM (≈ 4.6 µg/mL)

CC1(C)C2CCC1(C)C(NC(=S)Nc1cccc(F)c1)C2 [Compound L-3e, L-1-(3-fluorophenyl)-3-(1,7,7-trimethylbicyclo[2.2.1]heptan-2-yl)thiourea]
IC50 (human sEH): 0.0561 µM | Solubility [1]: 10 ± 5 µM (≈ 3.06 µg/mL)

CC12CCC(C1)C(C)(C)C2NC(=O)Nc1cccc(Cl)c1 [Compound L-6d, L-1-(3-chlorophenyl)-3-(1,3,3-trimethylbicyclo[2.2.1]heptan-2-yl)urea]
IC50 (human sEH): 0.166 µM | Solubility [1]: 40 ± 10 µM (≈ 12.3 µg/mL)

CC1(C)C2CCC1(C)C(NC(=O)Nc1ccccc1Cl)C2 [Compound L-3c, L-1-(2-chlorophenyl)-3-(1,7,7-trimethylbicyclo[2.2.1]heptan-2-yl)urea]
IC50 (human sEH): 0.387 µM | Solubility [1]: 30 ± 10 µM (≈ 9.21 µg/mL)

CC1(C)C2CCC1(C)C(NC(=O)Nc1cccc(F)c1)C2 (racemic) [L/D-3a, rac-1-(3-fluorophenyl)-3-(1,7,7-trimethylbicyclo[2.2.1]heptan-2-yl)urea]
IC50 (human sEH): 0.0015 µM | Solubility [1]: 50 ± 10 µM (≈ 14.5 µg/mL)

CC1(C)C2CCC1(C)C(NC(=O)Nc1ccccc1Cl)C2 (racemic) [L/D-3c, rac-1-(2-chlorophenyl)-3-(1,7,7-trimethylbicyclo[2.2.1]heptan-2-yl)urea]
IC50 (human sEH): 0.085 µM | Solubility [1]: 30 ± 10 µM (≈ 9.21 µg/mL)

CC12CCC(C1)C(C)(C)C2NC(=O)Nc1cccc(F)c1 [Compound L-6a, L-1-(3-fluorophenyl)-3-(1,3,3-trimethylbicyclo[2.2.1]heptan-2-yl)urea]
IC50 (human sEH): 0.221 µM | Solubility [1]: 45 ± 10 µM (≈ 13.1 µg/mL)

CC12CCC(C1)C(C)(C)C2NC(=S)Nc1ccc(F)cc1 [Compound D-6f, D-1-(4-fluorophenyl)-3-(1,3,3-trimethylbicyclo[2.2.1]heptan-2-yl)thiourea]
IC50 (human sEH): 6.08 µM | Solubility [1]: 15 ± 5 µM (≈ 4.6 µg/mL)

CC1(C)C2CCC1(C)C(NC(=O)Nc1cccc(F)c1)C2 [Compound L-3a, L-1-(3-fluorophenyl)-3-(1,7,7-trimethylbicyclo[2.2.1]heptan-2-yl)urea]
IC50 (human sEH): 0.0007 µM | Solubility [1]: 50 ± 10 µM (≈ 14.5 µg/mL)

CC12CCC(C1)C(C)(C)C2NC(=S)Nc1ccc(F)cc1 [Compound L-6f, L-1-(4-fluorophenyl)-3-(1,3,3-trimethylbicyclo[2.2.1]heptan-2-yl)thiourea]
IC50 (human sEH): 4.23 µM | Solubility [1]: 15 ± 5 µM (≈ 4.6 µg/mL)

CC1(C)C2CCC1(C)C(NC(=O)Nc1ccccc1Cl)C2 [Compound D-3c, D-1-(2-chlorophenyl)-3-(1,7,7-trimethylbicyclo[2.2.1]heptan-2-yl)urea]
IC50 (human sEH): 0.0696 µM | Solubility [1]: 30 ± 10 µM (≈ 9.21 µg/mL)

CC12CCC(C1)C(C)(C)C2NC(=O)Nc1ccccc1Cl [Compound D-6c, D-1-(2-chlorophenyl)-3-(1,3,3-trimethylbicyclo[2.2.1]heptan-2-yl)urea]
IC50 (human sEH): 4.81 µM | Solubility [1]: 40 ± 10 µM (≈ 12.3 µg/mL)

CC1(C)C2CCC1(C)C(NC(=S)Nc1ccc(F)cc1)C2 (racemic) [L/D-3f, rac-1-(4-fluorophenyl)-3-(1,7,7-trimethylbicyclo[2.2.1]heptan-2-yl)thiourea]
IC50 (human sEH): 0.0335 µM | Solubility [1]: 15 ± 5 µM (≈ 4.6 µg/mL)

CC1(C)C2CCC1(C)C(NC(=S)Nc1cccc(F)c1)C2 (racemic) [L/D-3e, rac-1-(3-fluorophenyl)-3-(1,7,7-trimethylbicyclo[2.2.1]heptan-2-yl)thiourea]
IC50 (human sEH): 0.126 µM | Solubility [1]: 10 ± 5 µM (≈ 3.06 µg/mL)

CC12CCC(C1)C(C)(C)C2NC(=O)Nc1ccccc1Cl [Compound L-6c, L-1-(2-chlorophenyl)-3-(1,3,3-trimethylbicyclo[2.2.1]heptan-2-yl)urea]
IC50 (human sEH): 1.47 µM | Solubility [1]: 40 ± 10 µM (≈ 12.3 µg/mL)

CC1(C)C2CCC1(C)C(NC(=O)Nc1ccc(F)cc1)C2 [Compound L-3b, L-1-(4-fluorophenyl)-3-(1,7,7-trimethylbicyclo[2.2.1]heptan-2-yl)urea]
IC50 (human sEH): 0.004 µM | Solubility [1]: 65 ± 15 µM (≈ 18.9 µg/mL)

CC1(C)C2CCC1(C)C(NC(=O)Nc1cccc(F)c1)C2 [Compound D-3a, D-1-(3-fluorophenyl)-3-(1,7,7-trimethylbicyclo[2.2.1]heptan-2-yl)urea]
IC50 (human sEH): 0.0028 µM | Solubility [1]: 50 ± 10 µM (≈ 14.5 µg/mL)

CC12CCC(C1)C(C)(C)C2NC(=S)Nc1cccc(F)c1 [Compound L-6e, L-1-(3-fluorophenyl)-3-(1,3,3-trimethylbicyclo[2.2.1]heptan-2-yl)thiourea]
IC50 (human sEH): 2.98 µM | Solubility [1]: 10 ± 5 µM (≈ 3.06 µg/mL)

CC12CCC(C1)C(C)(C)C2NC(=O)Nc1cccc(Cl)c1 [Compound D-6d, D-1-(3-chlorophenyl)-3-(1,3,3-trimethylbicyclo[2.2.1]heptan-2-yl)urea]
IC50 (human sEH): 0.111 µM | Solubility [1]: 40 ± 10 µM (≈ 12.3 µg/mL)

CC1(C)C2CCC1(C)C(NC(=O)Nc1cccc(Cl)c1)C2 [Compound L-3d, L-1-(3-chlorophenyl)-3-(1,7,7-trimethylbicyclo[2.2.1]heptan-2-yl)urea]
IC50 (human sEH): 0.0015 µM | Solubility [1]: 35 ± 15 µM (≈ 10.7 µg/mL)

CC1(C)C2CCC1(C)C(NC(=S)Nc1ccc(F)cc1)C2 [Compound D-3f, D-1-(4-fluorophenyl)-3-(1,7,7-trimethylbicyclo[2.2.1]heptan-2-yl)thiourea]
IC50 (human sEH): 0.0383 µM | Solubility [1]: 15 ± 5 µM (≈ 4.6 µg/mL)

CC1(C)C2CCC1(C)C(NC(=O)Nc1cccc(Cl)c1)C2 (racemic) [L/D-3d, rac-1-(3-chlorophenyl)-3-(1,7,7-trimethylbicyclo[2.2.1]heptan-2-yl)urea]
IC50 (human sEH): 0.0016 µM | Solubility [1]: 35 ± 15 µM (≈ 10.7 µg/mL)

Source: PMC10438916 (Results in chemistry, 2022)
